# Literature values, collected in patent US6989450B2 (priority 2000, dated 2006).
# Like-named read-outs stand apart in the source and are kept apart here.
# Columns and labels:
# [1] = molecular target: microtubule, or polymeric, form of tubulin; details: binding to polymeric tubulin
# [2] = tested on: P-glycoprotein expressing KBV-1 cells; details: P-glycoprotein (MDR protein) expressing KBV-1 cells
# [3] = tested on: multidrug resistant cell lines
# [4] = water solubility; comparison with taxol
KD [1],SMILES,IC50 [2] [µM],potency relative to Taxol [3],potency relative to Taxol ([3]; multidrug resistant cell lines / cancerous cells with acquired multiple drug resistance),"potency relative to Taxol ([3]; multidrug resistant cell lines / cancerous cells with acquired multiple drug resistance, listed as 1)",solubility [4]
micromolar,CC(=O)O[C@H]1C(=O)[C@@]2(C)[C@H]([C@H](OC(=O)c3ccccc3)[C@]3(O)C[C@H](OC(=O)[C@H](O)[C@@H](NC(=O)c4ccccc4)c4ccccc4)C(C)=C1C3(C)C)[C@]1(OC(C)=O)CO[C@@H]1C[C@@H]2O [Taxol],23,–,–,–,–
–,C/C(=C\c1csc(C)n1)[C@@H]1C[C@@H]2O[C@@H]2CCC[C@H](C)[C@H](O)[C@@H](C)C(=O)C(C)(C)[C@@H](O)CC(=O)O1 [Epothilone A],–,thousand-fold more potent,–,–,–
–,C/C(=C\c1csc(C)n1)[C@@H]1C[C@@H]2O[C@]2(C)CCC[C@H](C)[C@H](O)[C@@H](C)C(=O)C(C)(C)[C@@H](O)CC(=O)O1 [Epothilone B],0.058,–,thousand-fold more active than Taxol,thousand-fold more potent,better solubility than taxol
